# Experimental data published in patent publication US5169833A, “Substituted cyclic pentapeptides” (G. D. Searle & Co., priority 1991, dated 1992).
# Where a name gives a salt, the structure may show the parent alone.
# Experiments:
# CD Charles River mice = test: Writhing Assay (PBQ-induced writhing); type: in vivo; conditions: mouse; for Writhing Assay, number of mice out of ten in which peptide was active, Intragastric: i.g., 15 min before PBQ; for Writhing Assay, number of mice out of ten in which peptide was active, Intragastric / Writhing Assay, number of mice out of ten in which peptide was active, Subcutaneous: 10 mpk screening dose; for Writhing Assay ED50 value, Subcutaneous / Writhing Assay, number of mice out of ten in which peptide was active, Subcutaneous: s.c.; for Writhing Assay ED50 value, Subcutaneous: 25 min before PBQ i.p.
# Text: The "Writhing Assay" is one of the most widely-used experimental procedures for measuring the analgesic activity of different narcotic and nonnarcotic analgesic agents, and involves the continuous, chemically-induced pain of visceral origin to an animal, such as a mouse or rat. [Gyires et al., Arch. int. Pharmacodyn, 267, 131-140 (1984); C. Vander Wende et al., Fed. Proc., 15, 494 (1956); Koster et al., Fed. Proc., 18, 412 (1959); and Witken et al., J. Pharmacol. Exp. Ther., 133, 400-408 (1961).] Chemicals Which may be used to induce this pain include phenylbenzoquinone (PBQ) and acetic acid. As a result of the chemical irritation to the animal, a characteristic stretching and writhing of the animal (dorsiflexion of the animal's back, extension of its hindlimbs and the strong contraction of its abdominal musculature) will generally occur. […] Drugs which reduce the number of writhes of the animal appear to restore the normal nociceptive threshold of the animal.
# This assay was conducted generally in the manner described by R. I. Taber, "Predictive Value of Analgesic Assays in Mice and Rats," Advances in Biochemical Psychopharmacology, 8, 191 (1974).
# Two hundred CD Charles River mice, weighing 20 to 30 grams were used in this assay.
# Twenty-five minutes after subcutaneous administration, and fifteen minutes after intragastric administration, to the mice of 10 mg per kilogram (mpk) of body weight of either a Test Pentapeptide or the Mosberg Pentapeptide, 0.1 ml per 10 g of body weight of a 0.025% w/v solution of PBQ was injected intraperitoneally into each mouse. Some mice were given saline in place of a Test Pentapeptide, or the Mosberg Pentapeptide, and were used as a control group.
# Five minutes later, each mouse was individually placed into a glass beaker for observation, and the number of writhes occurring during the following ten-minute period was counted.
# A pentapeptide compound was considered to be "active" (to have produced analgesia in a mouse) if, after the administration of 10 mg per kilogram (mpk) of body weight of the compound to the mouse, the number of writhes elicited by a mouse injected with PBQ was equal to, or less than, one-half the median number of writhes recorded for the saline-treated control group of mice that day, as described by R. I. Taber, supra.
# The standard initial screening dose of a test compound employed in this assay was 10 mpk […] for both routes of administration. […] A maximum likelihood function was used to determine the ED50 value. (The slopes of the dose-response curves for all test compounds analyzed were compared as described by Tallarida and Murray, Manual of Pharmacologic Calculations, Page 11 (Springer Verlag, New York, 1981)).
# [1] = system: Charles River albino mice; test: Tail Flick Assay (mouse); type: in vivo; conditions: for Tail Flick Assay activity, Subcutaneous: s.c.
# Text: (§1) The "Tail Flick Assay" and the "Hot Plate Assay" (also known as the "Hind Paw Lick Assay") use thermal pain of transient duration, and are tests in which the pain threshold of the mice or rats being analyzed has not been altered. They are useful for evaluating the ability of a compound or drug to increase the animal's pain threshold (i.e. prolong response latencies), rather than to restore normal thresholds.
# (§2) The heat-induced response to the Tail Flick Assay is a reflex reaction mediated at the level of the spinal cord. The heat-induced response to the Hot Plate Assay, however, is a more complex behavior requiring integration at higher centers in the brain.
# The Tail Flick Assay and the Hot Plate Assay were performed generally in the manner described by G. Woolfe et al., "The Evaluation of the Analgesic Action of Pethidine Hydrochloride (Demerol)," J. Pharmacol. Exp. Ther., 80, 300, (1944), F. D'Amour et al., "A Method for Determining Loss of Pain Sensation," J. PharmacoI. Exp. Ther., 72, 74, 300-307 (1941), and E. Drower et al., "The Antinociceptive Effects of Prostaglandin Antagonists in the Rat," European Journal of Pharmacology, 133, 249-256 (1987).
# Male Charles River albino mice and male Charles River Sprague-Dawley rats weighing 20 to 30 g, and 200 to 250 g, respectively, were employed in these assays.
# (§3) Tail flick response latencies (defined as the time that elapsed between the onset of a high intensity beam of light and the reflex removal of the mouse or rat's tail) and hot plate response latencies (defined as the time that elapsed between the placement of a mouse or rat on a 55 degrees Celsius surface and a lick of the hind paw) were separately, but consecutively, measured before (baseline) and again at fixed intervals after subcutaneous or intracerebroventricular administration of one of the pentapeptide compounds of the invention, the Mosberg Pentapeptide, or after the administration of saline (controls). The cut-off latencies established to prevent tissue damage in the animals are 12 seconds or 14 seconds in the mouse and rat, respectively, in the Tail Flick Assay, and 40 seconds for both species in the Hot Plate Assay. The significance of any increase in tail flick response latency or hot plate response latency is determined using analyses of variance.
# One way analyses of variance were used to determine the significance of the effect of the pentapeptides on response latencies. […]
# (§4) "Activity" or "Inactivity" was determined at a particular concentration of the peptide by a significant increase in tail flick or hot plate latencies above normal latencies.
# (§5) The data resulting from the Tail Flick Assay and the Hot Plate Assay are presented in Tables II and III below, respectively. The numbers in parentheses are calculated ED50 values.
# [2] = system: Charles River albino mice; test: Hot Plate Assay (mouse); type: in vivo
# Text: as §1, §2
# The Tail Flick Assay and the Hot Plate Assay were performed generally in the manner described by G. Woolfe et al., "The Evaluation of the Analgesic Action of Pethidine Hydrochloride (Demerol)," J. Pharmacol. Exp. Ther., 80, 300, (1944), F. D'Amour et al., "A Method for Determining Loss of Pain Sensation," J. PharmacoI. […]
# as §3, with “The cut-off latencies established to prevent tissue damage in the animals are 12 seconds or 14 seconds in the mouse and rat, respectively, in the Tail Flick Assay, and 40 seconds for both species in the Hot Plate Assay.” left out, “variance. […]” for “variance.”
# as §4, §5
# δ opioid receptors = δ opioid receptors (Rattus norvegicus, UniProt P33533); test: Opiate Binding Assay, δ (3[H]-DSLET displacement)
# μ opioid receptors = μ opioid receptors (Rattus norvegicus, UniProt P33535); test: Opiate Binding Assay, μ (3[H]-DAMPGO displacement)
# [3] = system: Charles River Sprague-Dawley rats; test: Tail Flick Assay (rat); type: in vivo; conditions: s.c., at 30 mpk
# Text: as §1
# The heat-induced response to the Tail Flick Assay is a reflex reaction mediated at the level of the spinal cord. The heat-induced response to the Hot Plate Assay, however, is a more complex behavior requiring integration at higher centers in the brain. […]
# Tail flick response latencies (defined as the time that elapsed between the onset of a high intensity beam of light and the reflex removal of the mouse or rat's tail) and hot plate response latencies (defined as the time that elapsed between the placement of a mouse or rat on a 55 degrees Celsius surface and a lick of the hind paw) were separately, but consecutively, measured before (baseline) and again at fixed intervals after subcutaneous or intracerebroventricular administration of one of the pentapeptide compounds of the invention, the Mosberg Pentapeptide, or after the administration of saline (controls). […]
# [4] = i.c.v., dose giving half the maximum possible increase in latency
# δ opioid receptors, sequence (P33533 whole entry): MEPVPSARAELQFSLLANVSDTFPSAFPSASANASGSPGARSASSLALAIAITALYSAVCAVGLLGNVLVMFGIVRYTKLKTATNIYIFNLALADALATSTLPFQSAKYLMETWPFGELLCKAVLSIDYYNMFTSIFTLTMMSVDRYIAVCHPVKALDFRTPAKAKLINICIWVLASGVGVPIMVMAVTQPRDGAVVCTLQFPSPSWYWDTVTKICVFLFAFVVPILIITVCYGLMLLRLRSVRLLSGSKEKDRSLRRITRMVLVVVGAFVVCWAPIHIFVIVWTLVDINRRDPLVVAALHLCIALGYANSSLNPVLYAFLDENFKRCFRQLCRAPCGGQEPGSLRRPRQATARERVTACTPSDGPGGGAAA
# μ opioid receptors, sequence (P33535 whole entry): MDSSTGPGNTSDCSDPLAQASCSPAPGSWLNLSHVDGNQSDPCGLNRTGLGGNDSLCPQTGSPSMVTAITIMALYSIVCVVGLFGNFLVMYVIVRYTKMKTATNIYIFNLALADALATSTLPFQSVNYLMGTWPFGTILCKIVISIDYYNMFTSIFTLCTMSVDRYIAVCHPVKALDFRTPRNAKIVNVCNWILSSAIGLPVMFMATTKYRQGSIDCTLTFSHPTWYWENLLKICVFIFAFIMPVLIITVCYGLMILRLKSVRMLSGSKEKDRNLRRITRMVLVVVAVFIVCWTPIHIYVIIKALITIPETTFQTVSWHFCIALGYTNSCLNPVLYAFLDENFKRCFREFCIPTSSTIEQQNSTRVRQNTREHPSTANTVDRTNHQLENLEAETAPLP
structure (smiles),measurement,setting,value
"COC(=O)[C@@H]1NC(=O)[C@H](Cc2ccccc2)NC(=O)CNC(=O)[C@H](NC(=O)[C@@H](N)Cc2c(C)cc(O)cc2C)C(C)(C)SSC1(C)C [Example 16, -dimethyl-L-tyrosyl-3-mercapto-D-valylglycyl-L-phenylalanyl-3-mercapto-D-valine, cyclic (2→5)-disulfide, methyl ester]","Writhing Assay, number of mice out of ten in which peptide was active, Intragastric",CD Charles River mice,3/10
same,"Writhing Assay ED50 value, Subcutaneous",CD Charles River mice,2.1 mpk
same,"Tail Flick Assay activity, Intracerebroventricular","[1]; i.c.v., at 10 μg",Active
same,"Tail Flick Assay activity, Subcutaneous",[1]; at 30 mpk,Active
same,"Hot Plate Assay activity, Intracerebroventricular","[2]; i.c.v., at 10 μg",Active
same,"Hot Plate Assay activity, Subcutaneous","[2]; s.c., at 30 mpk",Active
"Cc1cc(O)cc(C)c1C[C@H](N)C(=O)N[C@H]1C(=O)NCC(=O)N[C@@H](Cc2ccc(F)cc2)C(=O)N[C@@H](C(N)=O)C(C)(C)SSC1(C)C [Example 23, 2,6-dimethyl-L-tyrosyl-3-mercapto-D-valylglycyl-4-fluoro-L-phenylalanyl-3-mercapto-D-valinamide, cyclic (2→5)-disulfide]",rank order of potency in the Writhing Assay,CD Charles River mice; from Table I,most potent compound of the invention tested
same,"Writhing Assay, number of mice out of ten in which peptide was active, Intragastric",CD Charles River mice,4/10
same,"Writhing Assay ED50 value, Subcutaneous",CD Charles River mice,1.9 mpk
"Cc1cc(O)cc(C)c1C[C@H](N)C(=O)N[C@H]1C(=O)NCC(=O)N[C@@H](CC2CCCCC2)C(=O)N[C@@H](C(N)=O)C(C)(C)SSC1(C)C [Example 24, 2,6-dimethyl-L-tyrosyl-3-mercapto-D-valylglycyl-3-cyclohexyl-L-alanyl-3-mercapto-D-valinamide, cyclic (2→5)-disulfide]","Writhing Assay, number of mice out of ten in which peptide was active, Intragastric",CD Charles River mice,2/10
same,"Writhing Assay, number of mice out of ten in which peptide was active, Subcutaneous",CD Charles River mice,2/10
same,Mean IC50 μ/δ Ratio,"δ opioid receptors; ratio of mean IC50 values for μ and δ opioid receptors, above 1.0 = δ specific",1.6
"Cc1cc(O)c(C)c(C)c1CC(N)C(=O)N[C@H]1C(=O)NCC(=O)N[C@@H](Cc2ccccc2)C(=O)N[C@@H](C(=O)O)C(C)(C)SSC1(C)C (single isomer, unassigned) [Example 20 (Diastereomer A), 2,3,6-trimethyl-L-tyrosyl-3-mercapto-D-valylglycyl-L-phenylalanyl-3-mercapto-D-valine, cyclic (2→5) disulfide]",IC50,δ opioid receptors,24 nM
same,IC50,μ opioid receptors,24000 nM
"Cc1cc(O)cc(C)c1C[C@H](N)C(=O)N[C@H]1C(=O)NCC(=O)N[C@@H](Cc2ccccc2)C(=O)N[C@@H](C(=O)O)C(C)(C)SSC1(C)C [Example 4, 2,6-dimethyl-L-tyrosyl-3-mercapto-D-valylglycyl-L-phenylalanyl-3-mercapto-D-valine, cyclic (2→5)-disulfide]","Writhing Assay, number of mice out of ten in which peptide was active, Intragastric",CD Charles River mice,3/10
same,"Writhing Assay ED50 value, Subcutaneous",CD Charles River mice,2.6 mpk
same,"Tail Flick Assay calculated ED50 value, Intracerebroventricular",[1]; [4],0.28 µg
same,"Tail Flick Assay activity, Subcutaneous",[1]; at 33 mpk,Active
same,"Tail Flick Assay activity, Subcutaneous",[3],Active
same,"Hot Plate Assay calculated ED50 value, Intracerebroventricular",[2]; [4],0.20 µg
"Cc1ccc(CC(N)C(=O)N[C@H]2C(=O)NCC(=O)N[C@@H](Cc3ccccc3)C(=O)N[C@@H](C(=O)O)C(C)(C)SSC2(C)C)c(C)c1O (single isomer, unassigned) [Example 21 (Diastereomer B), 3-hydroxy-2,4-dimethyl-L-phenylalanyl-3-mercapto-D-valyglycyl-L-phenylalanyl-3-mercapto-D-valine, cyclic (2→5)-disulfide]",IC50,δ opioid receptors,151 nM
"Cc1cc(O)cc(C)c1C[C@H](N)C(=O)N[C@H]1C(=O)NCC(=O)N[C@@H](Cc2ccc(Cl)cc2)C(=O)N[C@@H](C(=O)OCc2ccccc2)C(C)(C)SSC1(C)C [Example 41, 2,6-dimethyl-L-tyrosyl-3-mercapto-D-valylglycyl-4-chloro-L-phenylalanyl-3-mercapto-D-valine, cyclic (2→5)-disulfide, phenylmethyl ester, monohydrochloride]","Writhing Assay, number of mice out of ten in which peptide was active, Intragastric",CD Charles River mice,4/10
same,"Writhing Assay, number of mice out of ten in which peptide was active, Subcutaneous",CD Charles River mice,3/10
